{"source": "patent US20200060276A1", "about": "“THIAZOLE COMPOUND AND HERBICIDE” (OAT Agrio Co., Ltd., priority 2017, published 2020)", "assay_type_in_all_cases": "in vivo", "key": {"[1]": {"test_system": "Echinochloa crus-galli (L.) P. Beauv. var. formosensis Ohwi", "test": "Test for Herbicidal Effect in Flooding Treatment (#1), ECHDG", "settings": "flooding treatment at seeding, dose 2 kg/ha, visual observation on day 21", "summary_of_the_method": "(§1)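 Flooded soil in cups was seeded 24 h after flooding, then treated with compound in acetone diluted with Tween 80-containing water, dropped onto the water surface at 2 kg/ha. After growth in a glasshouse, growth inhibition was scored visually on day 21 on a 0 (<10%) to 5 (≥90% or complete withering) scale.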"}, "Scirpus juncoides": {"test_system": "Scirpus juncoides", "test": "Test for Herbicidal Effect in Flooding Treatment (#1), SCIJU", "settings": "flooding treatment at seeding, dose 2 kg/ha, visual observation on day 21", "summary_of_the_method": "as §1"}, "Monochoria vaginalis": {"test_system": "Monochoria vaginalis", "test": "Test for Herbicidal Effect in Flooding Treatment (#1), MONVA", "settings": "flooding treatment at seeding, dose 2 kg/ha, visual observation on day 21", "summary_of_the_method": "as §1"}, "Cyperus microiria": {"test_system": "Cyperus microiria", "test": "Test for Herbicidal Effect in Flooding Treatment (#1), CYMIC", "settings": "flooding treatment at seeding, dose 2 kg/ha, visual observation on day 21", "summary_of_the_method": "as §1"}, "[2]": {"test_system": "Echinochloa crus-galli (L.) P. Beauv. var. formosensis Ohwi", "test": "Test for Herbicidal Effect in Flooding Treatment (#2), ECHDG at 2-2.5 leaf stage", "settings": "for ECHDG (2-2.5L) #2 herbicidal effect (growth inhibition grade): flooding treatment at 2-2.5 leaf stage, dose 0.2 kg/ha, visual observation on day 21", "summary_of_the_method": "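Flooded muddy soil was seeded with the weed, and at 2–2.5 leaf stage compound in acetone/Tween 80 water was dropped on the water surface at 0.2 kg/ha. Plants were kept in a glasshouse and scored visually on day 21 from 0 (<10% growth inhibition) to 5 (≥90% or complete withering).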"}, "Digitaria ciliaris": {"test_system": "Digitaria ciliaris", "test": "Test for Herbicidal Effect in Soil Treatment (#3)", "settings": "504 h, dose of 2 kg/ha, day 21, visual observation, read-out: growth inhibition effect", "excerpt": "0: Growth inhibition effect is less than 10%. 1: Growth inhibition effect is equal to or greater than 10%, and less than 30%. 2; Growth inhibition effect is equal to or greater than 30%, and less than 50%. 3: Growth inhibition effect equal to or greater than 50%, and less than 70%. 4: Growth inhibition effect is equal to or greater than 70%, and less than 90%. 5: Growth inhibition effect is equal to or greater than 90%, or complete withering is achieved. (#3) Test for Herbicidal Effect in Soil Treatment: Styrol cups each having an opening diameter of 8 cm (about 52 cm^2) were respectively filled with soil (45 ml) which had been passed through a sieve (2 mm). Water (about 115 ml) was added. Thereafter, Digitaria ciliaris was seeded. Each of the compounds of the present invention was dissolved in acetone, and the obtained product was then diluted with water containing Tween 80°. Each of the resultant chemical solutions was dropped on the entire surface of an associated one of treatment sections, so that each section was treated with 1 ml of the respective chemical solution (a dose of 2 kg/ha). After the treatment, the plants were grown in a glasshouse. On day 21, a survey was conducted on the herbicidal activity by visual observation, and evaluation was made according to the following criteria. The herbicidal activity of the following comparative compounds A and B (the compounds disclosed Japanese Unexamined Patent Publication No. 2003-096059) were evaluated."}}, "data": [{"smiles": "CCOc1cc(F)c(F)cc1CS(=O)(=O)c1ncc(Cl)s1", "note": "[Compound 1C-29]", "values": [{"measurement": "ECHDG #1 herbicidal effect (growth inhibition grade)", "setting": "[1]", "value": "5 (Growth inhibition effect is equal to or greater than 90%, or complete withering is achieved)"}, {"measurement": "SCIJU #1 herbicidal effect (growth inhibition grade)", "setting": "Scirpus juncoides", "value": "5 (Growth inhibition effect is equal to or greater than 90%, or complete withering is achieved)"}, {"measurement": "MONVA #1 herbicidal effect (growth inhibition grade)", "setting": "Monochoria vaginalis", "value": "5 (Growth inhibition effect is equal to or greater than 90%, or complete withering is achieved)"}, {"measurement": "CYMIC #1 herbicidal effect (growth inhibition grade)", "setting": "Cyperus microiria", "value": "5 (Growth inhibition effect is equal to or greater than 90%, or complete withering is achieved)"}, {"measurement": "ECHDG (2-2.5L) #2 herbicidal effect (growth inhibition grade)", "setting": "[2]", "value": "5 (Growth inhibition effect is equal to or greater than 90%, or complete withering is achieved)"}, {"measurement": "inhibition at 2000 g/ha", "setting": "Digitaria ciliaris", "value": "≥ 50", "unit": "%"}]}, {"smiles": "O=S(=O)(Cc1ccccc1OC(F)F)c1ncc(Cl)s1", "note": "[Compound 1C-38]", "values": [{"measurement": "ECHDG #1 herbicidal effect (growth inhibition grade)", "setting": "[1]", "value": "5 (Growth inhibition effect is equal to or greater than 90%, or complete withering is achieved)"}, {"measurement": "SCIJU #1 herbicidal effect (growth inhibition grade)", "setting": "Scirpus juncoides", "value": "5 (Growth inhibition effect is equal to or greater than 90%, or complete withering is achieved)"}, {"measurement": "MONVA #1 herbicidal effect (growth inhibition grade)", "setting": "Monochoria vaginalis", "value": "5 (Growth inhibition effect is equal to or greater than 90%, or complete withering is achieved)"}, {"measurement": "CYMIC #1 herbicidal effect (growth inhibition grade)", "setting": "Cyperus microiria", "value": "5 (Growth inhibition effect is equal to or greater than 90%, or complete withering is achieved)"}, {"measurement": "inhibition at 200 g/ha", "setting": "[2]; Echinochloa crus-galli, 504 h, flooding treatment (#2), ECHDG at 2-2.5 leaf stage, dose of 0.2 kg/ha, day 21, visual observation, read-out: growth inhibition effect", "value": "≥ 90", "unit": "%"}, {"measurement": "ECHDG (2-2.5L) #2 herbicidal effect (growth inhibition grade)", "setting": "[2]", "value": "5 (Growth inhibition effect is equal to or greater than 90%, or complete withering is achieved)"}, {"measurement": "inhibition at 2000 g/ha", "setting": "Digitaria ciliaris", "value": "≥ 90", "unit": "%"}]}, {"smiles": "CCOc1cc(F)c(CS(=O)(=O)c2ncc(Cl)s2)cc1F", "note": "[Compound 1C-101, 5-chloro-2-[(2,5-difluoro-4-ethoxyphenyl)(methanesulfonyl)]-1,3-thiazole]", "values": [{"measurement": "ECHDG #1 herbicidal effect (growth inhibition grade)", "setting": "[1]", "value": "5 (Growth inhibition effect is equal to or greater than 90%, or complete withering is achieved)"}, {"measurement": "SCIJU #1 herbicidal effect (growth inhibition grade)", "setting": "Scirpus juncoides", "value": "5 (Growth inhibition effect is equal to or greater than 90%, or complete withering is achieved)"}, {"measurement": "MONVA #1 herbicidal effect (growth inhibition grade)", "setting": "Monochoria vaginalis", "value": "5 (Growth inhibition effect is equal to or greater than 90%, or complete withering is achieved)"}, {"measurement": "CYMIC #1 herbicidal effect (growth inhibition grade)", "setting": "Cyperus microiria", "value": "5 (Growth inhibition effect is equal to or greater than 90%, or complete withering is achieved)"}, {"measurement": "ECHDG (2-2.5L) #2 herbicidal effect (growth inhibition grade)", "setting": "[2]", "value": "5 (Growth inhibition effect is equal to or greater than 90%, or complete withering is achieved)"}, {"measurement": "inhibition at 2000 g/ha", "setting": "Digitaria ciliaris", "value": "≥ 50", "unit": "%"}]}]}
